Legend:
[1] = molecular target: DmpX (SBP encoded by SPO2441) (Ruegeria pomeroyi, UniProt Q5LQP7); test: biochemical; assay type: binding, Ruegeria pomeroyi DSS-3; set-up: key to Dissociation constant (Kd): -: not detectable; conditions: ITC; for binding affinity (in words): DMSP analogues compared to DMSP; for Dissociation constant (Kd): dash = not detectable
Description: (§1) The genes encoding SBPs from R. pomeroyi DSS-3 or R. nubinhibens ISM were amplified from the genome of R. pomeroyi DSS-3 or R. nubinhibens ISM by PCR using FastPfu DNA polymerase (TransGen Biotech, China). The dmpX homologue from P. sp. strain HTCC7211 (locus tag HTCC7211_00013840) was synthesized by the Beijing Genomics Institute (China). The related genes were then cloned into the NdeI/XhoI restriction sites of the pET-22b vector (Novagen, Germany) with a C-terminal His tag. Point mutations in DmpX were introduced using the PCR-based method and verified by DNA sequencing. The SBPs and corresponding mutant forms were produced in E. coli BL21 (DE3). The cells were cultured in the LB medium with 0.1 mg/ml ampicillin at 37 °C to an OD600 of 0.8–1.0 and then induced at 18 °C for 16 h with 0.5 mM isopropyl-β-D-thiogalactopyranoside (IPTG). After induction, cells were collected by centrifugation, resuspended in the lysis buffer (50 mM Tris-HCl, 100 mM NaCl, 0.5% glycerol, pH 8.0), and lysed by a pressure crusher. The proteins were first purified by affinity chromatography on a Ni^2+-NTA column (GE Healthcare, US), and then fractionated by gel filtration on a Superdex G75 column (GE healthcare, US).
(§2) Isothermal titration calorimetry (ITC) measurements were performed at 25 °C using a MicroCal iTC200 system (GE Healthcare, US) or MicroCal PEAQ-ITC system (Malvern Panalytical, UK). The sample cell was loaded with 280 μl of protein sample (30–100 μM), and the reference cell contained distilled water. The syringe was filled with 40 μl of substrates (100 μM–1 mM). The proteins and substrates were kept in the same buffer containing 10 mM Tris-HCl (pH 8.0) and 100 mM NaCl.

DmpX^7211 = DmpX^7211 (Candidatus Pelagibacter sp. HTCC7211, UniProt B6BQI1); test: ITC titration of substrates into recombinant DmpX^7211; assay type: binding; set-up: key: -: not detectable; conditions: dash = not detectable
Chain of DmpX^7211 (B6BQI1 27-337 limits assumed): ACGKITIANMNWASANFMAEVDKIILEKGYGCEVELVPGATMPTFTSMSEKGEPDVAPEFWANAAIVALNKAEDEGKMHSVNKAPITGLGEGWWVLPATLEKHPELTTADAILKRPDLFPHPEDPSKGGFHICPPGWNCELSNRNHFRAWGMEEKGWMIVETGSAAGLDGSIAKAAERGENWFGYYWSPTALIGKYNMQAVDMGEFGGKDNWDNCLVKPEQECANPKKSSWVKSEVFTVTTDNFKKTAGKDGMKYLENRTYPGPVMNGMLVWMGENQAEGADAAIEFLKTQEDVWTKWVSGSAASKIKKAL
Description: as §1, §2

RnDmpX = RnDmpX (Roseovarius nubinhibens, UniProt A3SME7); test: ITC titration of DMSP into recombinant RnDmpX; assay type: binding, Roseovarius nubinhibens ISM
Chain of RnDmpX (A3SME7 entry or part of it): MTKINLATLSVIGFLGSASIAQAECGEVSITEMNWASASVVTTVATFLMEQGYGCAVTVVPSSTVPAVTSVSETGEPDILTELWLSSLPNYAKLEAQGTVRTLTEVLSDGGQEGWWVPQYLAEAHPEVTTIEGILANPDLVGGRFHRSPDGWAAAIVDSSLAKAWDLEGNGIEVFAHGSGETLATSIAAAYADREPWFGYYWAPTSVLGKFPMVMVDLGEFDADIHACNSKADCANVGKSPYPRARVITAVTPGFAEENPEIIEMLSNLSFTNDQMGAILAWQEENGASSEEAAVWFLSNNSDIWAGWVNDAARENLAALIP
Description: as §1
(§3) Isothermal titration calorimetry (ITC) measurements were performed at 25 °C using a MicroCal iTC200 system (GE Healthcare, US) or MicroCal PEAQ-ITC system (Malvern Panalytical, UK). […]

SBP encoded by SPO1131 = test: ITC titration of DMSP into recombinant SBP encoded by SPO1131; assay type: binding, Ruegeria pomeroyi DSS-3
Description: as §1, §3

SBP encoded by SPOA0231 = test: ITC titration of DMSP into recombinant SBP encoded by SPOA0231; assay type: binding, Ruegeria pomeroyi DSS-3
Description: as §1, §3

RnDmpX Tyr200Ala mutant = test: ITC titration of DMSP into RnDmpX Tyr200Ala mutant; assay type: binding, Roseovarius nubinhibens ISM; conditions: Tyr200 mutated to Ala
Description: as §1, §3

RnDmpX Tyr200Phe mutant = test: ITC titration of DMSP into RnDmpX Tyr200Phe mutant; assay type: binding, Roseovarius nubinhibens ISM; conditions: Tyr200 mutated to Phe
Description: as §1, §3

[2] = system: TmoX (encoded by SPO1548); set-up: method as in PMID 24550299, PMID 26283766; conditions: cited from earlier work
R. pomeroyi DSS-3 WT = test: Uptake of 14C-labeled DMSP, wild-type; assay type: cell-based, Ruegeria pomeroyi DSS-3; conditions: 5 min, 30 °C, mean ± S.D. n = 3
Description: (§4) Triplicates of 1 µl ^14C:^12C-DMSP in 3 ml scintillation fluid (EcoLume Liquid Scintillation Cocktail, MP Biomedical, US) were measured on a liquid scintillation analyzer (Tri-Carb 2800TR, Perkin Elmer, UK) after overnight equilibration.
(§5) A single colony of R. pomeroyi DSS-3 WT, ΔdmpXWV mutant, or complemented ΔdmpXWV mutant was inoculated into 5 ml of marine broth medium (MB) and grown overnight at 30 °C under constant shaking (170 rpm). 1 ml preculture was inoculated into 50 ml MB and grown at 30 °C with shaking (130 rpm) until an OD540 of ~0.5-0.7 was reached, then used for DMSP uptake assays.
(§6) Due to a relatively low radiochemical and mid-millimolar range molar concentration of the ^14C:^12C-DMSP stock, we could not conduct uptake kinetics experiments. Instead, we used three DMSP concentrations (50, 150, and 300 µM) and added them to 3 ml of cultures in biological triplicates. Cells were incubated at 30 °C with shaking (130 rpm) for 5 min, filtered onto 0.2 µm pore size Supor filters (∅ 25 mm, Pall Corporation, US), and washed 3x with 1 ml MB medium. Wet filters were transferred to 6 ml scintillation vials and 3 ml EcoLume Liquid Scintillation Cocktail added. After equilibration overnight, samples were measured on a Tri-Carb 2800TR liquid scintillation analyzer. Cells fixed in 2% (vol/vol) freshly prepared paraformaldehyde solution for >15 min at 4 °C in the dark prior to radioisotope addition were used for background correction. Uptake rates were normalized by cell number.
(§7) Bacterial cell numbers used for normalization of uptake rates were determined by flow cytometry. […] 75 to 200-fold sample dilutions in sterile TE buffer (10 mM Tris-HCl, 1 mM EDTA, pH 8.0) were counted in analytical triplicates on a CytoFLEX flow cytometer (Beckman Coulter, UK) at a flow rate of 30 µl min^-1 for 60 sec. The instrument was equipped with a 50 mW 488 nm solid-state diode laser with standard filters and the discriminator set to 525 nm (green fluorescence) (Fig. S1).

[3] = system: R. pomeroyi DSS-3 ΔdmpXWV::Gm mutant; test: Uptake of 14C-labeled DMSP, ΔdmpXWV::Gm mutant; assay type: cell-based, Ruegeria pomeroyi DSS-3; conditions: for Uptake rate: ΔdmpXWV::Gm, 5 min, 30 °C, mean ± S.D. n = 3
Description: Bacterial cell numbers used for normalization of uptake rates were determined by flow cytometry [41]. 1 ml culture was fixed with a final concentration of 0.5% (vol/vol) glutaraldehyde (Electron microscopy grade, BDH, AE) for 30 min at 4 °C, snap frozen in liquid nitrogen, and stored at –80 °C. Samples were thawed at 37 °C for 5 min, stained with SYBR gold (Invitrogen, US) (final concentration 10^-4 of commercial stock) for 10 min at 60 °C in the dark. 75 to 200-fold sample dilutions in sterile TE buffer (10 mM Tris-HCl, 1 mM EDTA, pH 8.0) were counted in analytical triplicates on a CytoFLEX flow cytometer (Beckman Coulter, UK) at a flow rate of 30 µl min^-1 for 60 sec. The instrument was equipped with a 50 mW 488 nm solid-state diode laser with standard filters and the discriminator set to 525 nm (green fluorescence) (Fig. S1).

[4] = system: R. pomeroyi DSS-3 complemented mutant ΔdmpXWV::Gm; test: Uptake of 14C-labeled DMSP, complemented ΔdmpXWV::Gm mutant; assay type: cell-based, Ruegeria pomeroyi DSS-3; conditions: for Uptake rate: complemented mutant ΔdmpXWV::Gm, 5 min, 30 °C, mean ± S.D. n = 3
Description: To create the ΔdmpXWV knockout mutant regions of homology at the 5′ and 3′ ends of dmpXWV were amplified, alongside the gentamicin cassette from the p34s-Gm plasmid. Amplified DNA fragments were assembled into linearised pk18mobsacB using the HiFi assembly kit (New England Biolabs) according to the manufacturer’s instructions. To construct the complementation plasmid, dmpXWV was cloned into linearised pBBR1McS-km using the HiFi assembly kit. Plasmids were electroporated into competent Escherichia coli S17.1 λpir and conjugated into R. pomeroyi DSS-3. The knockout mutant was selected onto minimal media plates containing gentamicin (10 µg/ml), with resultant colonies screened for kanamycin resistance. Kanamycin-sensitive clones were PCR screened and products sequenced to confirm a double crossover. The complemented mutant strain was selected on MB plates containing gentamicin (10 µg/ml) and kanamycin (80 µg/ml), and colonies confirmed by PCR screening and sequencing.
as §4, §5
as §6, with “Cells fixed in 2% (vol/vol) freshly prepared paraformaldehyde solution for >15 min at 4 °C in the dark prior to radioisotope addition were used for background correction. Uptake rates were normalized by cell number.” left out
as §7

Chain of DmpX (SBP encoded by SPO2441) (Q5LQP7 entry or part of it): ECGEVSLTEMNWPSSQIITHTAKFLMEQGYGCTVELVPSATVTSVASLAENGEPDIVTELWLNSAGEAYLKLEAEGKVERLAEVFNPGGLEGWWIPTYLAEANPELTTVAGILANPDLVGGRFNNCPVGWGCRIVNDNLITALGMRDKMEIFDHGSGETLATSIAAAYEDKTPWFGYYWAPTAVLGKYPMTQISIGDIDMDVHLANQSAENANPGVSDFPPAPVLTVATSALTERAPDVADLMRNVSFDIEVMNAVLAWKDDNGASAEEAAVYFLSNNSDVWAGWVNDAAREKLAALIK

C[N+](C)(C)CC(O)CC(=O)[O-] (centres unmarked) [carnitine]
binding affinity (in words) [1]: little binding affinity | Dissociation constant (Kd) ([1]; SPO2441 (DmpX)): - | Dissociation constant (Kd) (DmpX^7211): -

C[N+](C)(C)CCO [choline]
binding affinity (in words) [1]: little binding affinity | Dissociation constant (Kd) ([1]; SPO2441 (DmpX)): -

C[N+](C)(C)[O-] [TMAO, trimethylamine N-oxide]
binding affinity (in words) [1]: little binding affinity | Dissociation constant (Kd) ([1]; SPO2441 (DmpX)): - | Dissociation constant (Kd) (DmpX^7211): -

C[S+](C)CCC(=O)[O-] [DMSP, Dimethylsulfoniopropionate]
Kd ([1]; 25 °C, 10 mM Tris-HCl pH 8.0, 100 mM NaCl, SPO2441 (DmpX), read-out: Dissociation constant (Kd)): 1100 nM | Kd (RnDmpX): 474 nM | high binding affinity for DMSP (in words) (SBP encoded by SPO1131): did not | high binding affinity for DMSP (in words) (SBP encoded by SPOA0231): did not | binding affinity for DMSP (in words) (RnDmpX Tyr200Ala mutant): abolished | binding affinity for DMSP (in words) (RnDmpX Tyr200Phe mutant): abolished | binding affinity to DMSP (in words) [2]: does not show any binding affinity

C[S+](C)CCC(=O)[O-] [^14C-DMSP, [1-^14C]DMSP]
Uptake rate (R. pomeroyi DSS-3 WT; DMSP concentration 50 µM): 1.852 ± 0.100 fmol cell^-1 min^-1 | Uptake rate (R. pomeroyi DSS-3 WT; DMSP concentration 150 µM): 2.267 ± 0.189 fmol cell^-1 min^-1 | Uptake rate (R. pomeroyi DSS-3 WT; DMSP concentration 300 µM): 3.095 ± 0.081 fmol cell^-1 min^-1 | reduction of uptake in the mutant in comparison to the wild-type ([3]; 50 μM DMSP, p < 0.001): ~ 5 times | decrease of uptake in the mutant in comparison to the wild-type ([3]; 300 μM DMSP, p < 0.001): ~ 3 times | Uptake rate ([3]; DMSP concentration 50 µM): 0.522 ± 0.040 fmol cell^-1 min^-1 | Uptake rate ([3]; DMSP concentration 300 µM): 1.344 ± 0.150 fmol cell^-1 min^-1 | restoration of import by complementation with dmpXWV (in words) ([4]; complemented mutant versus ΔdmpXWV::Gm): partly restore | Uptake rate ([4]; DMSP concentration 50 µM): 0.946 ± 0.299 fmol cell^-1 min^-1 | Uptake rate ([4]; DMSP concentration 150 µM): 1.221 ± 0.159 fmol cell^-1 min^-1 | Uptake rate ([4]; DMSP concentration 300 µM): 1.893 ± 0.084 fmol cell^-1 min^-1

C[N+](C)(C)CC(=O)O [GBT, glycine betaine]
binding affinity (in words) [1]: little binding affinity | Dissociation constant (Kd) ([1]; SPO2441 (DmpX)): - | Dissociation constant (Kd) (DmpX^7211): -

Source: PMC10030565, “Ubiquitous occurrence of a dimethylsulfoniopropionate ABC transporter in abundant marine bacteria” (The ISME Journal, 2023)
